Here are results for 2 compounds from patent US20120058956A1, “PEPTIDES DERIVED FROM FICOLIN AS SURFACTANTS” (METAMOREFIX LTD., priority 2009, published 2012).

This data set can be described thus: transport of hyaluronic acid through pig skin (Franz cell). As to the method:
Skin samples (stored at −80° C.) were thawed at 4° C. for approximately 15 hr followed by 1 hr at room temperature prior to use. A thawed pig dermatomed skin sample was mounted horizontally on a Franz cell, dermis side down. […] The receptor phase consisted of PBS pH 7.4 with continuous stirring.
A test formulation, formulated as a suspension was applied to the skin and uniformly dispersed over the skin surface at a surface density of at least 1.0 g/cm^2 to insure pseudo-infinite dose conditions. The formulations consisted of a peptide surfactant of the invention together with hyaluronic acid. The formulations used were as described in the following table: […]
The dose chamber was sealed with an occlusive film to prevent loss of any volatile component of the test formulation. […] Each aliquot was replaced with an equal volume of PBS.
The samples were analyzed for the presence of hyaluronic acid by the Carbazole method as is known in the art.

In the case of `CCCCCCCCCCCC(=O)N(C)CC(=O)[O-].[Na+]` [NLS, N Lauroyl Sarcosine Sodium salt], the “HA traversed the skin” value (pH 7.4) is “about 65 ?g/cm^2”. In the case of hyaluronic acid [HA], the “HA traversed the skin” value (control, surfactant omitted, 5 mg/ml HA, period of 6 hours, Franz cell, receptor PBS pH 7.4, curve 1 in FIG. 1) is given as “about 40 ?g/cm^2”.
